The target of the first assay is phosphorylated active hERK2 enzyme (Homo sapiens (Human), UniProt P28482). The assay is described as follows: Active Human ERK2 (hERK2) Activity Assay (IMAP-FP). The format is biochemical. The following applies: Table 5, 0.5 nM hERK2, 30 μM ATP, 10 point titration, read-out: AERK2 IC50. The gist of the method: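 IMAP detection beads in buffer with 24 mM NaCl stopped the reaction, and fluorescence polarization was read after 60 min binding.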
Chain of phosphorylated active hERK2 enzyme (P28482 whole entry): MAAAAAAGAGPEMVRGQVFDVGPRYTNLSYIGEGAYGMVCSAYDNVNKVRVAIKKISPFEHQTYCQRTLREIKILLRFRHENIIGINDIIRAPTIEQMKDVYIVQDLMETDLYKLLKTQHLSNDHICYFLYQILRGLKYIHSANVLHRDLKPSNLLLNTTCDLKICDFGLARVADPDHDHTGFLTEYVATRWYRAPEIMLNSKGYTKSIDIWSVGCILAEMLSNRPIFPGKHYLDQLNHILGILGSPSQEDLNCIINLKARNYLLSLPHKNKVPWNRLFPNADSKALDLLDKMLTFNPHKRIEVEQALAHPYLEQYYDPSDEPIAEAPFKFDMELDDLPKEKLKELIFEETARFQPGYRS
Regarding `C[C@@H](NC(=O)Nc1cc2[nH]nc(N(C)C)c2cn1)c1ccccc1` [Example 19, 1-[3-(dimethylamino)-1H-pyrazolo[4,3-c]pyridin-6-yl]-3-[(1R)-1-phenylethyl]urea], the IC50 came to 13.8 nM.

For `COCCN(C)c1n[nH]c2cc(NC(=O)N[C@H](C)c3ccccc3)ncc12` [Example 10, 1-{3-[(2-methoxyethyl)(methyl)amino]-1H-pyrazolo[4,3-c]pyridin-6-yl}-3-[(1R)-1-phenylethyl]urea], the IC50 is 42.1 nM.

Consider `C[C@@H](NC(=O)Nc1cc2[nH]nc(NS(=O)(=O)C3CNC3)c2cn1)c1ccccc1` [Example 56], for which the 50% inhibitory concentration (IC50) stood at 191 nM.

Still in this assay, the particulars now being: Table 6, 0.5 nM hERK2, 30 μM ATP, 10 point titration, read-out: AERK2 IC50.
For the molecule `CN(C)C[C@H](NC(=O)Nc1cc2[nH]nc(N)c2cn1)c1ccccc1` [Example 263, 1-(3-amino-1H-pyrazolo[4,3-c]-pyridin-6-yl)-3-[(1R)-2-(dimethylamino)-1-phenylethyl]urea], the IC50 was determined as 127 nM.

`CCOc1ncccc1CNC(=O)Nc1cc2[nH]nc(N)c2cn1` [Example 262, 1-(3-amino-1H-pyrazolo[4,3-c]pyridin-6-yl)-3-[(2-ethoxypyridin-3-yl)methyl]urea]: the IC50 was determined as 20.7 nM.

With `CC(C)(O)[C@@H](NC(=O)Nc1cc2[nH]nc(N3CCOCC3)c2cn1)c1ccc(F)cc1` [Example 438, 1-[(1S)-1-(4-fluorophenyl)-2-hydroxy-2-methylpropyl]-3-(3-morpholin-4-yl-1H-pyrazolo[4,3-c]-pyridin-6-yl)urea], the concentration for half-maximal inhibition (IC50) came to 0.4 nM.

In the case of `Nc1n[nH]c2cc(NC(=O)N[C@@H](c3ccccc3)C3(O)CCCC3)ncc12` [Example 260, 1-(3-amino-1H-pyrazolo[4,3-c]-pyridin-6-yl)-3-[(S)-(1-hydroxy-cyclopentyl)-(phenyl)methyl]-urea], the half-inhibitory concentration (IC50) was determined as 0.4 nM.

Take `CC(C)(O)[C@@H](NC(=O)Nc1cc2[nH]nc(NC(=O)OCC(F)F)c2cn1)c1ccc(F)cc1` [Example 406, 2,2-difluoroethyl [6-({[(1S)-1-(4-fluorophenyl)-2-hydroxy-2-methyl-propyl]carbamoyl}amino)-1H-pyrazolo[4,3-c]-pyridin-3-yl]-carbamate]: the IC50 turned out to be 1.5 nM.

On to `CC(C)OC(=O)Nc1n[nH]c2cc(NC(=O)N[C@H](C)c3ccccc3)ncc12` [Example 223, 1-methylethyl[6-({[(1R)-1-phenylethyl]-carbamoyl}amino)-1H-pyrazolo[4,3-c]pyridin-3-yl]-carbamate], for which the IC50 was determined as 12.4 nM.

Turning to `C[C@@H](NC(=O)Nc1cc2[nH]nc(NC(C)(C)C)c2cn1)c1ccccc1` [Example 351, 1-[3-(tert-butylamino)-1H-pyrazolo[4,3-c]-pyridin-6-yl]-3-[(1R)-1-phenylethyl]urea], the half-inhibitory concentration (IC50) worked out at 88 nM.

Turning to `C[C@@H](NC(=O)Nc1cc2[nH]nc3c2c(n1)CCN3)c1ccccc1` [Example 136, (R)-1-(1-phenylethyl)-3-(1,3,4,5-tetrahydropyrazolo[3,4,5-de][1,6]naphthyridin-7-yl)urea], the IC50 worked out at 12.2 nM.

`C[C@@H](O)[C@@H](NC(=O)Nc1cc2[nH]nc(N3CCOCC3)c2c(CO)n1)c1ccc(F)cc1` [Example 108, 1-[(1S,2R)-1-(4-Fluorophenyl)-2-hydroxypropyl]-3-[4-(hydroxymethyl)-3-morpholin-4-yl-1H-pyrazolo[4,3-c]pyridin-6-yl]urea]: the half-inhibitory concentration (IC50) was 0.4 nM.

On to `C[C@@H](NC(=O)Nc1cc2[nH]nc(NC3CCOC3)c2cn1)c1ccccc1` (stereo partly drawn) [Example 161, 1-[(1R)-1-phenylethyl]-3-[3-(tetrahydrofuran-3-ylamino)-1H-pyrazolo[4,3-c]pyridin-6-yl]urea], for which the IC50 was 2.3 nM.

As to `CC(=O)Nc1n[nH]c2cc(NC(=O)N[C@H](COC(F)F)c3ccccc3)ncc12` [Example 364, N-[6-({[(1S)-2-(difluoromethoxy)-1-phenylethyl]-carbamoyl}amino)-1H-pyrazolo[4,3-c]pyridin-3-yl]-acetamide], the IC50 is 0.3 nM.

Take `C[C@@H](NC(=O)Nc1cc2[nH]nc(NC3CC(N)C3)c2cn1)c1ccccc1` (stereo partly drawn) [Example 216, 1-{3-[(3-amino-cyclobutyl)amino]-1H-pyrazolo[4,3-c]pyridin-6-yl}-3-[(1R)-1-phenylethyl]urea]: the IC50 amounted to 12 nM.

As to `C[C@@H](NC(=O)Nc1cc2[nH]nc(NCc3ccccn3)c2cn1)c1ccccc1` [Example 190, 1-[(1R)-1-phenylethyl]-3-{3-[(pyridin-2-yl-methyl)amino]-1H-pyrazolo[4,3-c]-pyridin-6-yl}urea], the IC50 came out at 9.3 nM.

As for `C[C@@H](NC(=O)Nc1cc2[nH]nc(NC3CCNC3)c2cn1)c1ccccc1` (stereo partly drawn) [Example 184, 1-[(1R)-1-phenylethyl]-3-[3-(pyrrolidin-3-ylamino)-1H-pyrazolo[4,3-c]pyridin-6-yl]urea], the IC50 amounted to 102 nM.

Turning to `COC(=O)Nc1n[nH]c2cc(NC(=O)N[C@@H]3CCOc4ccccc43)ncc12` [Example 295, methyl (6-{[(4R)-3,4-dihydro-2H-chromen-4-ylcarbamoyl]-amino}-1H-pyrazolo[4,3-c]-pyridin-3-yl)-carbamate], the IC50 came out at 55 nM.

With `CC(Nc1n[nH]c2cc(NC(=O)N[C@@H](c3ccccc3)C(C)(C)O)ncc12)C(F)(F)F` (stereo partly drawn) [Example 434, 1-[(1S)-2-hydroxy-2-methyl-1-phenylpropyl]-3-{3-[(2,2,2-trifluoro-1-methylethyl)-amino]-1H-pyrazolo[4,3-c]-pyridin-6-yl}urea], the IC50 was 0.7 nM.

For `C[C@@H](NC(=O)Nc1cc2[nH]nc(NC3CCSC3)c2cn1)c1ccccc1` (stereo partly drawn) [Example 359, 1-[(1R)-1-phenylethyl]-3-[3-(tetrahydrothiophen-3-ylamino)-1H-pyrazolo[4,3-c]-pyridin-6-yl]urea], the 50% inhibitory concentration (IC50) was 1.2 nM.

Turning to `CCNc1n[nH]c2cc(NC(=O)N[C@H](CSC)c3ccccc3)ncc12` [Example 358, 1-[3-(ethylamino)-1H-pyrazolo[4,3-c]pyridin-6-yl]-3-[(1S)-2-(methylsulfanyl)-1-phenylethyl]urea], the IC50 was 0.8 nM.

For the molecule `COC[C@@H](NC(=O)Nc1cc2[nH]nc(Nc3ccccc3OC)c2cn1)c1ccccc1` [Example 122, 1-{3-[(2-methoxyphenyl)-amino]-1H-pyrazolo[4,3-c]pyridin-6-yl}-3-[(1S)-2-methoxy-1-phenylethyl]urea], the IC50 was determined as 8.4 nM.

As to `CCNc1n[nH]c2cc(NC(=O)N[C@H](COC(F)F)c3ccccc3)ncc12` [Example 353, 1-[(1S)-2-(difluoromethoxy)-1-phenylethyl]-3-[3-(ethylamino)-1H-pyrazolo[4,3-c]pyridin-6-yl]urea], the IC50 was 0.6 nM.

On to `COCCNc1n[nH]c2cc(NC(=O)N[C@H](COC)c3ccccc3)ncc12` [Example 371, 1-{3-[(2-methoxy-ethyl)amino]-1H-pyrazolo[4,3-c]-pyridin-6-yl}-3-[(1S)-2-methoxy-1-phenylethyl]urea], for which the IC50 is 0.7 nM.

For the molecule `C[C@@H](NC(=O)Nc1cc2[nH]nc(Nc3ccccc3)c2cn1)c1ccccc1` [Example 379, 1-[3-(phenyl-amino)-1H-pyrazolo[4,3-c]-pyridin-6-yl]-3-[(1R)-1-phenylethyl]urea], the IC50 stood at 127 nM.

As for `COC(=O)Nc1n[nH]c2cc(NC(=O)N[C@H](C)c3ccc(Cl)c(F)c3)ncc12` [Example 306, methyl [6-({[(1R)-1-(4-chloro-3-fluorophenyl)ethyl]carbamoyl}amino)-1H-pyrazolo[4,3-c]pyridin-3-yl]-carbamate], the IC50 was 1.5 nM.

Consider `CCNc1n[nH]c2cc(NC(=O)N[C@@H](CN(C)C)c3ccccc3)ncc12` [Example 239, 1-[(1R)-2-(dimethylamino)-1-phenylethyl]-3-[3-(ethylamino)-1H-pyrazolo[4,3-c]pyridin-6-yl]urea], for which the IC50 was determined as 27.4 nM.

Take `CC(C)(O)[C@@H](NC(=O)Nc1cc2[nH]nc(N3CC4CC3CO4)c2cn1)c1ccc(F)cc1` (stereo partly drawn) [Example 446, 1-[(1S)-1-(4-fluorophenyl)-2-hydroxy-2-methylpropyl]-3-[3-(2-oxa-5-azabicyclo[2.2.1]hept-5-yl)-1H-pyrazolo[4,3-c]pyridin-6-yl]urea]: the IC50 was determined as 0.8 nM.

Turning to `C[C@@H](O)[C@@H](NC(=O)Nc1cc2[nH]nc(N3CCOCC3)c2cn1)c1ccc(F)cc1` [Example 97, 1-[(1S,2R)-1-(4-fluorophenyl)-2-hydroxypropyl]-3-(3-morpholin-4-yl-1H-pyrazolo[4,3-c]-pyridin-6-yl)urea], the IC50 was determined as 0.2 nM.

Turning to `CC(=O)Nc1n[nH]c2cc(NC(=O)N[C@@H](c3ccc(F)cc3)C(C)(C)O)ncc12` [Example 395, N-[6-({[(1S)-1-(4-fluorophenyl)-2-hydroxy-2-methylpropyl]-carbamoyl}amino)-1H-pyrazolo[4,3-c]-pyridin-3-yl]-acetamide], the IC50 was 0.6 nM.

With `CC(C)(O)[C@@H](NC(=O)Nc1cc2[nH]nc(N)c2cn1)c1ccccc1` [Example 425, 1-(3-amino-1H-pyrazolo[4,3-c]-pyridin-6-yl)-3-[(1S)-2-hydroxy-2-methyl-1-phenylpropyl]urea], the IC50 stood at 14.9 nM.

Consider `CC[C@@H](NC(=O)Nc1cc2[nH]nc(N)c2cn1)c1ccc(Cl)cc1` [Example 273, 1-(3-amino-1H-pyrazolo[4,3-c]pyridin-6-yl)-3-[(1R)-1-(4-chloro-phenyl)propyl]urea], for which the IC50 came to 2.6 nM.

As for `C[C@@H](NC(=O)Nc1cc2[nH]nc(NC(=O)C3CCCC3)c2cn1)c1ccccc1` [Example 205, N-[6-({[(1R)-1-phenylethyl]-carbamoyl}amino)-1H-pyrazolo[4,3-c]pyridin-3-yl]-cyclopentane-carboxamide], the IC50 was 1.2 nM.

Consider `Nc1n[nH]c2cc(NC(=O)N[C@H](c3ccccc3)[C@@H]3CCCO3)ncc12` [Example 155, 1-(3-amino-1H-pyrazolo[4,3-c]pyridin-6-yl)-3-{(R)-phenyl[(2S)-tetrahydrofuran-2-yl]methyl}urea], for which the IC50 was 495 nM.

Take `O=C(Nc1cc2[nH]nc(N3CCOCC3)c2cn1)N[C@H](CO)c1ccccc1` [Example 437, 1-[(1S)-2-hydroxy-1-phenylethyl]-3-(3-morpholin-4-yl-1H-pyrazolo[4,3-c]pyridin-6-yl)urea]: the IC50 worked out at 0.4 nM.

The term IC50 denotes the concentration that gives 50% inhibition.

Source of the values: patent US9233979B2, “Compounds that are ERK inhibitors” (Merck Sharp & Dohme Corp., priority 2012, dated 2016).
